In PubChem BioAssay (NCI):
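GI50 marks 50% less growth. The concentration for full growth arrest is given as TGI.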

Tests used:
Assay in all cases: inhibition of tumour cell growth, NCI panel, 384-well format
MCF7 breast = test system: MCF7 breast
HL-60(TB) leukemia = test system: HL-60(TB) leukemia
OVCAR-3 ovarian = test system: OVCAR-3 ovarian
CCRF-CEM leukemia = test system: CCRF-CEM leukemia
SF-295 CNS = test system: SF-295 CNS
CAKI-1 renal = test system: CAKI-1 renal
NCI-H322M lung = test system: NCI-H322M lung
T-47D breast = test system: T-47D breast
NCI/ADR-RES ovarian = test system: NCI/ADR-RES ovarian
M14 melanoma = test system: M14 melanoma
NCI-H23 lung = test system: NCI-H23 lung
SNB-19 CNS = test system: SNB-19 CNS
LOX IMVI melanoma = test system: LOX IMVI melanoma
UACC-257 melanoma = test system: UACC-257 melanoma
MALME-3M melanoma = test system: MALME-3M melanoma
SN12C renal = test system: SN12C renal
PC-3 prostate = test system: PC-3 prostate
KM12 colon = test system: KM12 colon
HCT-116 colon = test system: HCT-116 colon
HS 578T breast = test system: HS 578T breast
UACC-62 melanoma = test system: UACC-62 melanoma
UO-31 renal = test system: UO-31 renal
COLO 205 colon = test system: COLO 205 colon
786-0 renal = test system: 786-0 renal
HT29 colon = test system: HT29 colon
HOP-62 NSCLC = test system: HOP-62 NSCLC
OVCAR-5 ovarian = test system: OVCAR-5 ovarian
NCI-H522 lung = test system: NCI-H522 lung
SNB-75 CNS = test system: SNB-75 CNS

Compound `COc1cc2c(cc1F)C(c1ccccc1Cl)=Nc1c(n[nH]c1C)N2` has a TGI (MCF7 breast) of 19800 nM, a GI50 (HL-60(TB) leukemia) of 166 nM and a TGI (HL-60(TB) leukemia) of 306 nM. The GI50 (OVCAR-3 ovarian) was 225 nM, the TGI (OVCAR-3 ovarian) was 823 nM and the GI50 (CCRF-CEM leukemia) was 145 nM. It also gave a TGI (CCRF-CEM leukemia) of 288 nM, a GI50 (SF-295 CNS) of 452 nM and a TGI (SF-295 CNS) of 16200 nM. For the same compound, the GI50 (CAKI-1 renal) was 512 nM, the TGI (CAKI-1 renal) was 4160 nM and the GI50 (NCI-H322M lung) was 4440 nM. For the same compound, the TGI (NCI-H322M lung) was 19900 nM, the GI50 (T-47D breast) was 794 nM and the TGI (T-47D breast) was 17700 nM. For the same compound, the GI50 (NCI/ADR-RES ovarian) was 304 nM, the TGI (NCI/ADR-RES ovarian) was 16000 nM and the GI50 (M14 melanoma) was 339 nM. For the same compound, the TGI (M14 melanoma) was 15900 nM, the GI50 (NCI-H23 lung) was 690 nM and the TGI (NCI-H23 lung) was 16500 nM. The GI50 (SNB-19 CNS) was 726 nM, the TGI (SNB-19 CNS) was 15100 nM and the GI50 (LOX IMVI melanoma) was 528 nM. The TGI (LOX IMVI melanoma) was 8780 nM, the GI50 (UACC-257 melanoma) was 11400 nM and the TGI (UACC-257 melanoma) was 23500 nM. For the same compound, the GI50 (MALME-3M melanoma) was 12600 nM, the TGI (MALME-3M melanoma) was 25200 nM and the GI50 (SN12C renal) was 632 nM. The TGI (SN12C renal) was 14200 nM, the GI50 (PC-3 prostate) was 709 nM and the TGI (PC-3 prostate) was 21100 nM. It also gave a GI50 (KM12 colon) of 274 nM, a TGI (KM12 colon) of 12100 nM and a GI50 (HCT-116 colon) of 393 nM. It also gave a TGI (HCT-116 colon) of 15100 nM, a GI50 (HS 578T breast) of 190 nM and a TGI (HS 578T breast) of 464 nM. For the same compound, the GI50 (UACC-62 melanoma) was 334 nM, the TGI (UACC-62 melanoma) was 12000 nM and the GI50 (UO-31 renal) was 781 nM. It also gave a TGI (UO-31 renal) of 2080 nM, a GI50 (COLO 205 colon) of 367 nM and a TGI (COLO 205 colon) of 12100 nM. It also gave a GI50 (786-0 renal) of 508 nM, a TGI (786-0 renal) of 11900 nM and a GI50 (HT29 colon) of 313 nM. The TGI (HT29 colon) was 12500 nM, the GI50 (HOP-62 NSCLC) was 521 nM and the TGI (HOP-62 NSCLC) was 14100 nM. For the same compound, the GI50 (OVCAR-5 ovarian) was 5320 nM, the TGI (OVCAR-5 ovarian) was 19800 nM and the GI50 (NCI-H522 lung) was 202 nM. It also gave a TGI (NCI-H522 lung) of 506 nM, a GI50 (SNB-75 CNS) of 320 nM and a TGI (SNB-75 CNS) of 1390 nM.
